In patent US6194416A, “Heterocyclic compounds and their use” (Eli Lilly and Company, priority 1997, dated 2001):
Like-named read-outs stand apart in the source and are kept apart here.

What was measured:
nicotinic receptors = experiment: Nicotinic channel receptor binding: [3H]-cystine binding to crude synaptic membranes from whole rat brain; conditions: 1.25 nM [3H-cystine], about 60 min, about 4° C.
Method: Nicotinic Channel Receptor Binding Protocol:
The activity of the compounds claimed herein at the nicotinic receptor can be accomplished by the following assay.
Binding of […] to nicotinic receptors was accomplished using crude synaptic membrane preparations from whole rat brain (Pabreza et al. Molecular Pharmacol., 1990, 39:9). Washed membranes were stored at about -80° C. prior to use. Frozen aliquots were slowly thawed and resuspended in 20 volumes of buffer (containing: […] NaCl, 5 mM KCl, 2 mM MgCl2, 2 mM Tris-Cl, ph 7.4 @4° C.). After centrifuging at 20,000×g for 15 minutes, the pellets were resuspended in about 30 volumes of buffer. Homogenate (containing about 125-150 ug protein) was added to tubes containing concentrations of test compound and [^3 H-cystine] (1.25 nM) in a final volume of 500 uL. Samples were incubated for about 60 minutes at about 4° C., then rapidly filtered through GF/B filters presoaked in 0.5% polyethylimine using 3×4 mL of ice cold buffer. The filters were counted.

[1] = biological target: T1, muscarinic receptors (M1-site, pirenzepine sensitive site) (Rattus norvegicus, UniProt P08482); experiment: Inhibition of 3HPRZ (pirenzepine, [N-methyl-3H]) binding to rat cerebral cortex membranes; design: species or system male Wistar rats
T1 construct: from tissue; host or cells: cerebral cortex membranes of male Wistar rats
T1 sequence (P08482 1-460): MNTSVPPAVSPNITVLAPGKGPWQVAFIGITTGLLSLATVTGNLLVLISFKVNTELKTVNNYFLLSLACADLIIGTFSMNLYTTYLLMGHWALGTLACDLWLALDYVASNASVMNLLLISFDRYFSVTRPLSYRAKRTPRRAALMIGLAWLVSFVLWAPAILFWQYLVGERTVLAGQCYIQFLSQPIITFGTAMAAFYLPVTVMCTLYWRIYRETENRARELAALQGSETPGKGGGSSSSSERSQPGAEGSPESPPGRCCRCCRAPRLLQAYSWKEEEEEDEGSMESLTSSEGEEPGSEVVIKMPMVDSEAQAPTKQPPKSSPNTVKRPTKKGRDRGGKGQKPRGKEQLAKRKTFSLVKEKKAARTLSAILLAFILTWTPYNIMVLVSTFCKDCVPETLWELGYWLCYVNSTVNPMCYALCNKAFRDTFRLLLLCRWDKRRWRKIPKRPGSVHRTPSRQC
Method: Furthermore the pharmacological properties of the compounds of the invention can also be illustrated by determining their capability to inhibit ^3 HPRZ (pirenzepine, [N-methyl-^3 H]) binding to rat cerebral cortex membranes.
Pirenzepine binds selectively to subtype of muscarinic receptors. Historically the type is named the M1 -site, whereas pirenzepine sensitive site would be more appropriate.
(§1) All preparations are performed at 0-4° C. unless otherwise indicated. Fresh cortex (0.1-19) from male Wistar rats (150-200 g) is homogenized for 5-10 s in 10 mL 20 mM Hepes pH: 7.4, with an Ultra-Turrax homogenizer. The homogenizer is rinsed with 2×10 mL of buffer and the combined suspension centrifuged for 15 min. at 40,000×g. The pellet is washed three times with buffer. In each step the pellet is homogenized as before in 3×10 mL of buffer and centrifuged for 10 min. at 40,000×g.
The final pellet is homogenized in 20 MM Hepes pH: 7.4 (100 mL per g of original tissue) and used for binding assay. Aliquots of 0.5 mL is added 20 μL of test solution and 25 μL of ^3 HPRZ (1.0 nM, final conc.), mixed and incubated for 60 min. at 20° C. Non-specific binding is determined in triplicate using atropine (1.0 μg/mL, final conc.) as the test substance. After incubation samples are added 5 mL of ice-cold buffer and poured directly onto Whatman GF/C glass fiber filters under suction and immediately washed 2 times with 5 mL of ice-cold buffer.
The amount of radioactivity on the filters are determined by conventional liquid scintillation counting. Specific binding is total binding minus non-specific binding.
Test substances are dissolved in 10 mL water, at a concentration of 0.22 mg/mL. 25-75% inhibition of specific binding must be obtained before calculation of IC50.
The test value will be given as IC50 (the concentration (nM) of the test substance which inhibits the specific binding of ^3 HPRZ by 50%). IC50 =(applied test substance concentration) x(Cx /Co -Cx)nM where Co is specific binding in control assays and Cx is the specific binding in the test assay. (The calculations assume normal mass-action kinetics).

[2] = biological target: muscarinic acetylcholine receptors; experiment: Inhibition of specific binding of 3H-Oxotremorine-M (3H-Oxo) to rat cortex membranes; design: species or system male Wistar rats; conditions: 1.0 nM 3H-Oxotremorine, 30 min, 25° C., pH 7.4
Source text: The pharmacological properties of the compounds of the invention can be illustrated by determining their capability to inhibit the specific binding of ^3 H-Oxotremorine-M (^3 H-Oxo). Birdsdall N. J. M., Hulme E. C., and Burgen A. S. V. (1980). "The Character of Muscarinic Receptors in Different Regions of the Rat Brain". Proc. Roy. Soc. London (Series B) 207,1.
^3 H-Oxo labels muscarinic receptor in the CNS (with a preference for agonist domains of the receptors). Three different sites are labeled by ^3 H-Oxo. […] Using the present experimental conditions only the high and medium affinity sites are determined.
The inhibitory effects of compounds on ^3 H-oxo binding reflects the affinity for muscarinic acetylcholine receptors.
as §1, with “(0.1-1 g)” for “(0.1-19)”, “(150-250” for “(150-200”, “[…]” for “mM”, “10” for “2×10”, “2×10” for “3×10”
The final pellet is homogenized in 20 mM Hepes pH: 7.4 (100 mL per g of original tissue) and used for binding assay. Aliquots of 0.5 mL is added 25 μL of test solution and 25 μL of ^3 H-Oxotremorine (1.0 nM, final concentration) mixed and incubated for 30 min. at 25° C. Non-specific binding is determined in triplicate using arecoline (1 μg/mL, final concentration) as the test substance. After incubation samples are added 5 mL of ice-cold buffer and poured directly onto Whatman GF/C glass fiber filters under suction and immediately washed 2 times with 5 mL of ice-cold buffer. The amount of radioactivity on the filters are determined by conventional liquid scintillation counting. Specific binding is total binding minus non specific binding.
Test substances are dissolved in 10 mL water (if necessary heated on a steam-bath for less than 5 min.) at a concentration of 2.2 mg/mL. 25-75% inhibition of specific binding must be obtained before calculation of IC50. The test value will be given as IC50 (the concentration (nM) of the test substance which inhibits the specific binding of ^3 H-oxo by 50%). IC50 =(applied test substance concentration) x([…])nM where Co is specific binding in control assays and Cx is the specific binding in the test assay. (The calculations assume normal mass-action kinetics).

[3] = rat cerebral cortex, 1.0 nM 3HPRZ, 60 min, 20° C., pH 7.4, read-out: 3HPRZ IC50

SMILES	Ki (nicotinic receptors)	IC50 [1]	IC50 [2]	IC50 [1, 3]
CCCCSc1nccnc1OC1CN2CCC1CC2 (racemic) [Compound 6, (+/-)-3-Butylthio-2-(1-azabicyclo[2.2.2]octyl-3-oxy)pyrazine]	5490 nM	–	–	–
Clc1nccnc1O[C@H]1CN2CCC[C@@H]1C2 (relative stereo) [Compound 19, 3-Chloro-2-[endo-(+,-)-6-(1-azabicyclo[3.2.1]octyloxy)]-pyrazine]	2780 nM	–	–	–
CCCCOc1nccnc1O[C@@H]1CN2CCC[C@H]1C2 (relative stereo) [Compound 23, 3-(1-butyloxy)-2-[endo-(+,-)-6-(1-azabicyclo[3.2.1]octyloxy)]-pyrazine]	–	2.7 nM	4.9 nM	–
CCCCSc1nccnc1O[C@@H]1CN2CCC[C@H]1C2 (relative stereo) [Compound 24, 3-(1-butylthio)-2-[endo-(+,-)-6-(1-azabicyclo[3.2.1]octyloxy)]-pyrazine]	–	–	2.2 nM	0.54 nM
CCCSc1nccnc1O[C@@H]1CN2CCC[C@H]1C2 (relative stereo) [Compound 29, (±)-endo-2-Propylthio-3-(1-azabicyclo[3.2.1]octyl-6-oxy)pyrazine]	–	–	1.7 nM	0.68 nM
CCCCCSc1nccnc1O[C@@H]1CN2CCC[C@H]1C2 (relative stereo) [Compound 30, (±)-endo-2-Pentylthio-3-(1-azabicyclo[3.2.1]octyl-6-oxy)pyrazine]	–	–	4.4 nM	0.82 nM
CC(C)CSc1nccnc1O[C@@H]1CN2CCC[C@H]1C2 (relative stereo) [Compound 31, (±)-endo-2-(2-Methylpropylthio)-3-(1-azabicyclo[3.2. 1]octyl-6-oxy)pyrazine]	–	–	3.4 nM	1.7 nM
CCSc1nccnc1O[C@@H]1CN2CCC[C@H]1C2 (relative stereo) [Compound 32, (±)-endo-2-Ethylthio-3-(1-azabicyclo[3.2.1]octyl-6-oxy)pyrazine]	–	–	3.9 nM	4 nM
FC(F)(F)CSc1nccnc1O[C@@H]1CN2CCC[C@H]1C2 (relative stereo) [Compound 33, (±)-endo-2-(2,2,2,-Trifluoroethylthio)-3-(1-azabicyclo[3.2. 1]octyl-6-oxy)pyrazine]	–	–	1.5 nM	0.7 nM
C/C=C/CSc1nccnc1O[C@@H]1CN2CCC[C@H]1C2 (relative stereo) [Compound 34, (±)-endo-2-(trans-2-Butenylthio)-3-(1-azabicyclo[3.2. 1]octyl-6-oxy)pyrazine]	–	–	2 nM	0.66 nM
FC(F)(F)CCCSc1nccnc1O[C@@H]1CN2CCC[C@H]1C2 (relative stereo) [Compound 35, (±)-endo-2-(4,4,4-Trifluorobutylthio)-3-(1-azabicyclo[3.2. 1]octyl-6-oxy)pyrazine]	–	–	3.2 nM	0.54 nM
C=CCSc1nccnc1O[C@@H]1CN2CCC[C@H]1C2 (relative stereo) [Compound 36, (±)-endo-2-(2-propenylthio)-3-(1-azabicyclo[3.2.1]octyl-6-oxy)pyrazine]	–	–	0.34 nM	5.8 nM
CC(C)CCSc1nccnc1O[C@@H]1CN2CCC[C@H]1C2 (relative stereo) [Compound 37, (±)-endo-2-(3-Methylbutylthio)-3-(1-azabicyclo[3.2. 1]octyl-6-oxy)pyrazine]	–	–	1.3 nM	0.76 nM
FC(F)(F)Oc1ccc(CSc2nccnc2O[C@@H]2CN3CCC[C@H]2C3)cc1 (relative stereo) [Compound 38, (±)-endo-2-(4-Trifluoromethoxybenzylthio)-3-(1-azabicyclo[3.2. 1]octyl-6-oxy)pyrazine]	–	–	6.2 nM	3.3 nM
CCCSc1cncc(O[C@@H]2CN3CCC[C@H]2C3)n1 (relative stereo) [Compound 39, (±)-endo-2-Propylthio-6-(1-azabicyclo[3.2.1]octyl-6-oxy)pyrazine]	–	–	10 nM	80 nM
FC(F)(F)CSc1cncc(O[C@@H]2CN3CCC[C@H]2C3)n1 (relative stereo) [Compound 40, (±)-endo-2-(2.2.2-Trifluoroethylthio)-6-(1-azabicyclo[3.2. 1]octyl-6-oxy)pyrazine]	–	–	60 nM	17 nM
COCCSc1nccnc1O[C@@H]1CN2CCC[C@H]1C2 (relative stereo) [Compound 41, (±)-endo-2-(2-Methoxyethylthio)-3-(1-azabicyclo[3.2. 1]octyl-6-oxy)pyrazine]	–	–	3.2 nM	1.6 nM
C(=Cc1ccccc1)CSc1nccnc1O[C@@H]1CN2CCC[C@H]1C2 (relative stereo) [Compound 42, (±)-endo-2-(3-Phenyl-2-propenylthio)-3-(1-azabicyclo[3.2. 1]octyl-6-oxy)pyrazine]	–	–	9.1 nM	4.8 nM
CC(C)=CCCSc1nccnc1O[C@@H]1CN2CCC[C@H]1C2 (relative stereo) [Compound 43, (±)-endo-2-(4-Methyl-3-pentenylthio)-3-(1-azabicyclo[3.2. 1]octyl-6-oxy)pyrazine]	–	–	8.1 nM	2.2 nM
CCCCSc1nccnc1OCCN(C)C [Compound 17]	21400 nM	–	–	–
CCCCSc1nccnc1OCC[N+](C)(C)C [Compound 18, 3-(1-Butylthio)-2-(2-(trimethylamino)ethoxy)pyrazine iodide]	580 nM	–	–	–
CN(C)CCOc1cnccn1 [Compound 26, 2-(2-Dimethylaminoethoxy)pyrazine]	130 nM	–	–	–
